Measured values reported in patent US6362369B1, “Phthalic acid diamide derivatives fluorine-containing aniline compounds as starting material, agricultural and horticultural insecticides, and a method for application of the insecticides” (Nihon Nohyaku Co., Ltd., priority 1997, dated 2002).

Columns and labels:
[1] = tested on: rice leafroller (Cnaphalocrocis medinalis); experiment: Insecticidal effect on rice leafroller (Test Example 3); type: in vivo; details: 500 ppm, 25° C., humidity 70%; for Insecticidal effect on rice leafroller (Test Example 3), judged grade / Insecticidal effect (Test Example 3), judged from mortality: rice lamina dip; for Insecticidal effect on rice leafroller (Test Example 3), judged grade: third-instar larvae; for Insecticidal effect on rice leafroller (Test Example 3), judged grade / Insecticidal effect, Test Example 3: four days after inoculation; for Insecticidal effect, Test Example 3: rice lamina immersed; for Insecticidal effect (Test Example 3), judged from mortality: 4 days after inoculation
Summary of the method: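 Insecticidal effect is judged by a predefined criterion from dead/alive counts four days after infesting air-dried lamina with third-instar larvae, kept on moistened filter paper at 25° C, 70% humidity.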

[2] = tested on: diamondback moth (Plutella xylostella); experiment: Insecticidal effect on diamondback moth (Test Example 1); type: in vivo; details: for Insecticidal effect on diamondback moth (Test Example 1), judged grade: mortality judged according to the criterion shown in Test Example 1; for Insecticidal effect, Test Example 1 / Insecticidal effect (Test Example 1), judged from mortality: diamondback moth; for Insecticidal effect (Test Example 1), judged from mortality: judged by the criterion of Test Example 1
Summary of the method: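 Triplicate groups of 10 insects were scored: six days after immersion of oviposited Chinese cabbage seedlings and holding at 25 °C post air-drying, hatched larvae were counted. Mortality derived from these counts and insecticidal effect judged by a set criterion.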

[3] = rice leafroller third-instar larvae
[4] = mortality judged by criterion of Test Example 1
[5] = third-instar larvae of rice leafroller
[6] = judged by the mortality criterion of Test Example 1

SMILES: CN(C(=O)c1ccccc1C(=O)NC(C)(C)C)c1ccc(OC(F)(F)F)cc1 [compound 933]
- Insecticidal effect on rice leafroller (Test Example 3), judged grade [1]: A (100)
- Insecticidal effect on diamondback moth (Test Example 1), judged grade [2]: A (100)

SMILES: Cc1cc(C(F)(F)C(F)(F)F)ccc1NC(=O)c1c(Cl)cccc1C(=O)NCc1cccnc1 [compound 1420]
- Insecticidal effect, Test Example 3 [1, 3]: A (100)
- Insecticidal effect, Test Example 1 [2, 4]: A (100)

SMILES: CC(C)NC(=O)c1cccc(Cl)c1C(=O)Nc1ccc(OC(F)F)c(Cl)c1 [compound 232]
- Insecticidal effect, Test Example 3 [1, 5]: A (100)
- Insecticidal effect, Test Example 1 [2, 6]: A (100)

SMILES: Cc1ccc(Cl)cc1NC(=O)c1c(OC(F)F)cccc1C(=O)NC(C)C [compound 778]
- Insecticidal effect on rice leafroller (Test Example 3), judged grade [1]: A (100)
- Insecticidal effect on diamondback moth (Test Example 1), judged grade [2]: A (100)

SMILES: Cc1cc(SC(F)F)ccc1NC(=O)c1cccc([N+](=O)[O-])c1C(=O)NC(C)C [compound 722]
- Insecticidal effect on rice leafroller (Test Example 3), judged grade [1]: A (100)
- Insecticidal effect on diamondback moth (Test Example 1), judged grade [2]: A (100)

SMILES: Cc1cc(C(F)(F)C(F)(F)F)ccc1NC(=O)c1cccc(Cl)c1C(=O)Nc1ccco1 [compound 1390]
- Insecticidal effect, Test Example 3 [1, 3]: A (100)
- Insecticidal effect, Test Example 1 [2, 4]: A (100)

SMILES: CCCCc1cc(I)ccc1NC(=O)c1cccc(I)c1C(=O)NC(C)C [compound 966]
- Insecticidal effect, Test Example 3 [1, 3]: B (99-90)
- Insecticidal effect, Test Example 1 [2, 4]: A (100)

SMILES: Cc1cc(C(F)(C(F)(F)F)C(F)(F)F)ccc1NC(=O)c1cccc(I)c1C(=O)NCCc1cccnc1 [compound 1770]
- Insecticidal effect (Test Example 3), judged from mortality [1, 5]: A (100)
- Insecticidal effect (Test Example 1), judged from mortality [2]: A (100)

SMILES: CC(C)(C)NC(=O)c1c(I)cccc1C(=O)Nc1ccc(C(F)(C(F)(F)F)C(F)(F)F)c2c1CCCC2 [compound 1727]
- Insecticidal effect (Test Example 3), judged from mortality [1, 5]: A (100)
- Insecticidal effect (Test Example 1), judged from mortality [2]: A (100)

SMILES: Cc1cc(OC(F)(F)F)ccc1NC(=O)c1c(I)cccc1C(=O)NC(C)c1ccccn1 (stereo not shown) [compound 1776]
- Insecticidal effect (Test Example 3), judged from mortality [1, 5]: A (100)
- Insecticidal effect (Test Example 1), judged from mortality [2]: A (100)

SMILES: CC(C)NC(=O)c1c(Cl)cccc1C(=O)Nc1ccc(OC(F)F)c(Cl)c1 [compound 134]
- Insecticidal effect, Test Example 3 [1, 5]: A (100)
- Insecticidal effect, Test Example 1 [2, 6]: A (100)

SMILES: CC(C)NC(=O)c1cccc(Cl)c1C(=O)Nc1ccc(OC(F)F)cc1 [compound 200]
- Insecticidal effect, Test Example 3 [1, 5]: A (100)
- Insecticidal effect, Test Example 1 [2, 6]: A (100)

SMILES: CCN(CC)C(=O)c1cccc(I)c1C(=O)Nc1ccc(C(F)(F)C(F)(F)F)cc1C [compound 1036]
- Insecticidal effect, Test Example 3 [1, 3]: A (100)
- Insecticidal effect, Test Example 1 [2, 4]: A (100)

SMILES: CCN(CC)C(=O)c1c(C(=O)Nc2ccc(Cl)cc2C)cccc1[N+](=O)[O-] [compound 1135]
- Insecticidal effect, Test Example 3 [1, 3]: A (100)
- Insecticidal effect, Test Example 1 [2, 4]: A (100)

SMILES: Cc1cc(Sc2ccc(Cl)cc2)ccc1NC(=O)c1c(F)cccc1C(=O)NC(C)C [compound 575]
- Insecticidal effect on rice leafroller (Test Example 3), judged grade [1]: A (100)
- Insecticidal effect on diamondback moth (Test Example 1), judged grade [2]: A (100)

SMILES: CC(C)NC(=O)c1cc(Cl)ccc1C(=O)Nc1cccc(C(F)(F)F)c1 [compound 171]
- Insecticidal effect, Test Example 3 [1, 5]: D (79-50)
- Insecticidal effect, Test Example 1 [2, 6]: A (100)

SMILES: Cc1cc(NC(=O)c2cccc([N+](=O)[O-])c2C(=O)NC(C)C)ccc1Br [compound 680]
- Insecticidal effect on rice leafroller (Test Example 3), judged grade [1]: D (79-50)
- Insecticidal effect on diamondback moth (Test Example 1), judged grade [2]: A (100)

SMILES: Cc1cc(OC(F)F)ccc1NC(=O)c1ccc(F)cc1C(=O)NC(C)C [compound 531]
- Insecticidal effect on rice leafroller (Test Example 3), judged grade [1]: A (100)
- Insecticidal effect on diamondback moth (Test Example 1), judged grade [2]: A (100)

SMILES: CCCNC(=O)c1c(C(=O)Nc2cc(Cl)ccc2C)cccc1[N+](=O)[O-] [compound 18]
- Insecticidal effect, Test Example 3 [1, 5]: A (100)
- Insecticidal effect, Test Example 1 [2, 6]: D (79-50)

SMILES: CC(C)(C)NC(=O)c1ccccc1C(=O)Nc1ccc(C(F)(F)F)cc1 [compound 928]
- Insecticidal effect on rice leafroller (Test Example 3), judged grade [1]: A (100)
- Insecticidal effect on diamondback moth (Test Example 1), judged grade [2]: A (100)
